# “And” between values parts separate entries of the source, which are not always exact repeats. Identical values can stand only once. Starred links: 1 amine or outer side, 2 acyl side, 3 side chain; linkers in the order of their positions; H or OH if unused. Non-standard residues stand in square brackets, D forms with d. Residues, ends and D or L forms follow the SMILES beside them. Groups on a side chain read outwards from the residue. βAsp = O=C(O)[C@H](CC(=O)[*:2])N[*:1]
# What was measured:
# Rattus norvegicus [1] = assay: Antithrombotic activity in Wistar rat assessed as reduction of thrombus weight at 5 umol/kg, iv; type: functional
# Rattus norvegicus [2] = assay: Antithrombotic activity in iv dosed Wistar rat assessed as reduction of thrombus weight; type: functional, organism-based
# Rattus norvegicus [3] = assay: Antithrombotic activity in Wistar rat assessed as thrombus weight at 5 umol/kg, po; type: functional
# Rattus norvegicus [4] = assay: Antithrombotic activity in Wistar rat assessed as thrombus weight at 20 mg/kg, po; type: functional
Compound,Activity (Rattus norvegicus [2]),further results
N=C(N)NCCC[C@H](NC(=O)C[C@H](N)C(=O)N[C@@H](CCCNC(=N)N)C(=O)N[C@@H](CC(=O)O)C(=O)O)C(=O)N[C@@H](CC(=O)O)C(=O)O (H-Asp([Arg-Asp])-Arg-Asp-OH),,Activity (Rattus norvegicus [1]): 25.12 mg and 15%
N=C(N)NCCC[C@H](NC(=O)C[C@H](NC(=O)C[C@H](N)C(=O)N[C@@H](CC(=O)N[C@@H](CCCNC(=N)N)C(=O)O)C(=O)O)C(=O)O)C(=O)O (H-Asp([βAsp-Arg])-[βAsp]-Arg-OH),Dose-dependent effect,Activity (Rattus norvegicus [3]): 23.2 mg
N=C(N)NCCC[C@H](NC(=O)CC[C@H](N)C(=O)N[C@@H](CCCNC(=N)N)C(=O)N[C@@H](CC(=O)O)C(=O)O)C(=O)N[C@@H](CC(=O)O)C(=O)O (H-Glu([Arg-Asp])-Arg-Asp-OH),Dose-dependent effect,
N=C(N)NCCC[C@H](NC(=O)C[C@H](NC(=O)CC[C@H](N)C(=O)N[C@@H](CC(=O)O)C(=O)N[C@@H](CCCNC(=N)N)C(=O)O)C(=O)O)C(=O)O (H-Glu([βAsp-Arg])-Asp-Arg-OH),Dose-dependent effect,
CC(=O)Oc1ccccc1C(=O)O [ASPIRIN],,Activity (Rattus norvegicus [4]): 8.5 mg
